Measurements from US4713371A, “Anthracycline derivatives and their use as cytostatics” (Hoechst Aktiengesellschaft, priority 1983, dated 1987).
≈ marks a conversion by molar mass, not a printed value. Where two headings read alike, the source gives them in different places.

Columns and labels:
L1210 leukemia cells = test: Formation of colonies of L1210 leukemia cells in soft agar; assay type: cell-based; settings: Mus musculus
Experimental: (§1) The cytostatic activity of the compounds described in this text was determined on L1210 mouse leukemia cells. Specifically, the following test systems were used:
(b) Formation of colonies of L1210 leukemia cells in soft agar
This method is used to detect an effect of the test substance on the growth characteristics of the cells over several generations (with the cell cycle period being 10-12 hours, about 14 consecutive generations are observed in the 7-day test period).
In this test, substances having cytostatic effects bring about a reduction in the number of colonies found compared with an untreated control. Specifically, the test is carried out as follows:
500 leukemia cells per plate are incubated with various concentrations of the test substance at 37° C. for 1 hour. The cells are then washed twice with McCoy 5a medium and, after addition of 0.3% agar, are finally poured into Petri dishes. Controls are merely incubated with fresh medium. In some cases, in place of incubation for 1 hour, various concentrations of the test substance are mixed into the upper agar layer in order thus to achieve continuous exposure of the cells throughout the incubation time. After the agar has solidified, the plates are incubated in an incubator at 37° C. for 7 days (5% CO2, 95% relative humidity). Then the number of resulting colonies having a diameter of 60μ is counted. The results are reported as the number of colonies in the treated agar plates as a percentage of the untreated control. The IC50 is determined from the dose-activity curve thus obtained and serves as a measure of the action of the substance. The results for the compounds described in this text are summarized and compared with adriamycin in Table 1.

[1] = tested on: L1210 mouse leukemia cells; test: Proliferation assay (14C-thymidine incorporation) on L1210 leukemia cells; assay type: cell-based; settings: read-out: Proliferation test IC50
Experimental: as §1
In this method, the extent to which the cells can incorporate radioactive DNA precursors (for example ^14 C-labeled thymidine) in vitro is determined after incubation of the cells with various concentrations of the test substance. Untreated L1210 cells are subjected to the same test conditions and serve as the control. The method is briefly described below:
L1210 cells in the exponential phase of growth (5×10^3 /ml in RPMI 1640) are incubated in a microtiter plate with various concentrations of the test substance for 72 hours (37° C., 5% CO2, 95% relative humidity). The controls comprise cells which are merely incubated with fresh medium. All determinations are carried out in quadruplicate. After 65 hours, 50 μl of ^14 C-thymidine (1.5 μCi/ml) are added in order to radiolabel the DNA in the cells. After incubation for 7 hours, the cells are filtered off with suction, the DNA is precipitated with 5% strength trichloroacetic acid and is then washed consecutively with water and methanol.
After drying at 50° C. and addition of 5 ml of scintillation liquid, the radioactivity incorporated in the DNA is measured.
The results are reported as the ratio of the scintillation count after incubation with the test substance as a percentage of the untreated control. The dose-activity curve is derived from the figures thus measured, and the IC50, i.e. the concentration which decreases the incorporation of radioactive thymidine by 50% compared with the control under the test conditions, is determined graphically. The IC50 figures for the compounds described in this text are summarized and compared with adriamycin (ADM) in Table 1.

[2] = 168 h, 7 days incubation (continuous exposure), soft agar, L1210, read-out: Colony formation test IC50, 7 days incubation
[3] = 1 hour incubation, then washed, soft agar 7 days, L1210, read-out: Colony formation test IC50, 1 hour incubation
[4] = 72 hours incubation, L1210 cells, 14C-thymidine incorporation
[5] = L1210, 168 h, read-out: Colony formation test IC50, 7 days incubation
[6] = L1210, read-out: Colony formation test IC50, 1 hour incubation

CCC1(O)CCc2c(O)c3c(c(O)c2C1OC1CC(N(C)C)C(OC2CC(O)C(O)C(C)O2)C(C)O1)C(=O)c1cccc(O)c1C3=O (stereo not shown) [Cytorhodin M]
IC50 (L1210 leukemia cells; [2]): 160 ng/mL (≈ 243 nM)
IC50 (L1210 leukemia cells; [3]): 390 ng/mL (≈ 593 nM)
IC50 [1, 4]: 280 ng/mL (≈ 426 nM)

CCC1(O)CC(OC2CC(N(C)C)C(OC3CC(O)C(OC4CCC(=O)C(C)O4)C(C)O3)C(C)O2)c2c(O)c3c(c(O)c2C1OC1CC(N(C)C)C(OC2CCC(OC4C=CC(=O)C(C)O4)C(C)O2)C(C)O1)C(=O)c1cccc(O)c1C3=O (stereo not shown) [Cytorhodin P]
IC50 (L1210 leukemia cells; [2]): 0.32 ng/mL (≈ 0.274 nM)
IC50 (L1210 leukemia cells; [3]): 2.8 ng/mL (≈ 2.4 nM)
IC50 [1, 4]: 2.6 ng/mL (≈ 2.23 nM)

CCC1(O)CC(OC2CC(N(C)C)C(OC3CC4OC5CC(=O)C(C)OC5OC4C(C)O3)C(C)O2)c2c(O)c3c(c(O)c2C1OC1CC(N(C)C)C(OC2CCC(OC4C=CC(=O)C(C)O4)C(C)O2)C(C)O1)C(=O)c1cccc(O)c1C3=O (stereo not shown) [Cytorhodin D]
IC50 (L1210 leukemia cells; [5]): 3.7 ng/mL (≈ 3.18 nM)
IC50 (L1210 leukemia cells; [6]): 2.8 ng/mL (≈ 2.4 nM)
IC50 ([1]; L1210, 72 h): 0.28 ng/mL (≈ 0.24 nM)

CCC1(O)CC(OC2CC(N(C)C)C(OC3CCC(OC4CCC(O)C(C)O4)C(C)O3)C(C)O2)c2c(O)c3c(c(O)c2C1OC1CC(N(C)C)C(OC2CCC(OC4CCC(O)C(C)O4)C(C)O2)C(C)O1)C(=O)c1cccc(O)c1C3=O (stereo not shown) [Cytorhodin A]
IC50 (L1210 leukemia cells; [2]): 3 ng/mL (≈ 2.59 nM)
IC50 (L1210 leukemia cells; [3]): 1.3 ng/mL (≈ 1.12 nM)
IC50 [1, 4]: 1.1 ng/mL (≈ 0.95 nM)

CCC1(O)CCc2c(O)c3c(c(O)c2C1OC1CC(N(C)C)C(OC2CC(O)C(OC4CCC(O)C(C)O4)C(C)O2)C(C)O1)C(=O)c1cccc(O)c1C3=O (stereo not shown) [Cytorhodin K]
IC50 (L1210 leukemia cells; [2]): 3 ng/mL (≈ 3.89 nM)
IC50 (L1210 leukemia cells; [3]): 31 ng/mL (≈ 40.2 nM)
IC50 [1, 4]: 3.7 ng/mL (≈ 4.79 nM)

CCC1(O)CCc2c(O)c3c(c(O)c2C1OC1CC(N(C)C)C(OC2CCC(O)C(C)O2)C(C)O1)C(=O)c1cccc(O)c1C3=O (stereo not shown) [Cytorhodin L]
IC50 (L1210 leukemia cells; [2]): 210 ng/mL (≈ 327 nM)
IC50 (L1210 leukemia cells; [3]): 1750 ng/mL (≈ 2730 nM)
IC50 [1, 4]: 300 ng/mL (≈ 467 nM)

CCC1(O)CC(OC2CC(N(C)C)C(OC3CCC(OC4C=CC(=O)C(C)O4)C(C)O3)C(C)O2)c2c(O)c3c(c(O)c2C1OC1CC(N(C)C)C(OC2CCC(OC4C=CC(=O)C(C)O4)C(C)O2)C(C)O1)C(=O)c1cccc(O)c1C3=O (stereo not shown) [Cytorhodin F]
IC50 (L1210 leukemia cells; [2]): 28 ng/mL (≈ 24.4 nM)
IC50 (L1210 leukemia cells; [3]): 42 ng/mL (≈ 36.5 nM)
IC50 [1, 4]: 2.4 ng/mL (≈ 2.09 nM)

CCC1(O)CCc2c(O)c3c(c(O)c2C1OC1CC(N(C)C)C(OC2CCC(OC4CCC(O)C(C)O4)C(C)O2)C(C)O1)C(=O)c1cccc(O)c1C3=O (stereo not shown) [Cytorhodin E]
IC50 (L1210 leukemia cells; [2]): 1.4 ng/mL (≈ 1.85 nM)
IC50 (L1210 leukemia cells; [3]): 28 ng/mL (≈ 37 nM)
IC50 [1, 4]: 25 ng/mL (≈ 33.1 nM)

CCC1(O)CC(OC2CC(N(C)C)C(OC3CC4OC5CC(=O)C(C)OC5OC4C(C)O3)C(C)O2)c2c(O)c3c(c(O)c2C1OC1CC(N(C)C)C(OC2CC4OC5CC(=O)C(C)OC5OC4C(C)O2)C(C)O1)C(=O)c1cccc(O)c1C3=O (stereo not shown) [Cytorhodin C]
IC50 (L1210 leukemia cells; [5]): 0.15 ng/mL (≈ 0.127 nM)
IC50 (L1210 leukemia cells; [6]): 3.4 ng/mL (≈ 2.88 nM)
IC50 ([1]; L1210, 72 h): 0.55 ng/mL (≈ 0.466 nM)

COc1cccc2c1C(=O)c1c(O)c3c(c(O)c1C2=O)C[C@@](O)(C(=O)CO)C[C@@H]3O[C@H]1C[C@H](N)[C@H](O)[C@H](C)O1 [ADM, adriamycin, reference compound]
IC50 (L1210 leukemia cells; [2]): 22 ng/mL (≈ 40.5 nM)
IC50 (L1210 leukemia cells; [3]): 44 ng/mL (≈ 81 nM)
IC50 [1, 4]: 6 ng/mL (≈ 11 nM)

CCC1(O)CC(OC2CC(N(C)C)C(OC3CCC(OC4C=CC(=O)C(C)O4)C(C)O3)C(C)O2)c2c(O)c3c(c(O)c2C1OC1CC(N(C)C)C(OC2CCC(OC4CCC(O)C(C)O4)C(C)O2)C(C)O1)C(=O)c1cccc(O)c1C3=O (stereo not shown) [Cytorhodin V]
IC50 (L1210 leukemia cells; [2]): 0.27 ng/mL (≈ 0.234 nM)
IC50 (L1210 leukemia cells; [3]): 2 ng/mL (≈ 1.73 nM)
IC50 [1, 4]: 2.9 ng/mL (≈ 2.51 nM)

CCC1(O)CC(OC2CCC(OC3CCC(OC4CCC(O)C(C)O4)C(C)O3)C(C)O2)c2c(O)c3c(c(O)c2C1C(=O)OC)C(=O)c1cccc(O)c1C3=O (stereo not shown) [Cytorhodin J]
IC50 [1, 4]: 4400 ng/mL (≈ 5710 nM)

CCC1(O)CC(OC2CC(N(C)C)C(OC3CC(O)C(OC4CCC(=O)C(C)O4)C(C)O3)C(C)O2)c2c(O)c3c(c(O)c2C1OC1CC(N(C)C)C(OC2CCC(OC4CCC(O)C(C)O4)C(C)O2)C(C)O1)C(=O)c1cccc(O)c1C3=O (stereo not shown) [Cytorhodin B]
IC50 (L1210 leukemia cells; [2]): 3.4 ng/mL (≈ 2.9 nM)
IC50 (L1210 leukemia cells; [3]): 1.2 ng/mL (≈ 1.02 nM)
IC50 [1, 4]: 2.8 ng/mL (≈ 2.39 nM)
